From ChEMBL document CHEMBL5696442, “Discovery of type II inhibitors of TGFβ-activated kinase 1 (TAK1) and mitogen-activated protein kinase kinase kinase kinase 2 (MAP4K2)” (J Med Chem, 2015)
The source made the active and inactive calls. The rule behind the calls is not given here.

How the values were obtained:
[1] = target: Calcium/calmodulin-dependent protein kinase type II subunit gamma (Homo sapiens) (UniProt Q13555); test: Inhibition of CaMK2g Lys1 labeling site harbouring TSTQEYAAKIINTKK in human Huh-7 cell lysate at 1 uM by KiNativ Profiling analysis relative to control; type: subcellular
Sequence of Calcium/calmodulin-dependent protein kinase type II subunit gamma (Homo sapiens) (Q13555 whole entry): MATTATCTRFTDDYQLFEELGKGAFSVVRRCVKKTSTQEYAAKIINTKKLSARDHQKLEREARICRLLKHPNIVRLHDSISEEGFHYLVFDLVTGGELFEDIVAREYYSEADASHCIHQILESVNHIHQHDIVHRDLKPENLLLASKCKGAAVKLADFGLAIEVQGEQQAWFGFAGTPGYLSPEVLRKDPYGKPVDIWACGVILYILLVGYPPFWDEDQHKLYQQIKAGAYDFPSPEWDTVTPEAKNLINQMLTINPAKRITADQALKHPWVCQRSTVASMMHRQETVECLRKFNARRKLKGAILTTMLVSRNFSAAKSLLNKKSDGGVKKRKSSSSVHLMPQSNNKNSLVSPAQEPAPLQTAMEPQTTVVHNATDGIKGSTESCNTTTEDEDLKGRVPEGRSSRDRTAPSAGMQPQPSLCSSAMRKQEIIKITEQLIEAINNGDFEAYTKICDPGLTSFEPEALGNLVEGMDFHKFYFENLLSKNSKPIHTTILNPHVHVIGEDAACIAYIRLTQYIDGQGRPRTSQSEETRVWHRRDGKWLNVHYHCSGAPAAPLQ

[2] = Inhibition of p70S6K Lys2 labeling site in human Huh-7 cells at 1 uM by KiNativ Profiling analysis relative to control; conditions: condition cancer
[3] = target: Activin receptor type-2A (Homo sapiens) (UniProt P27037); test: Inhibition of ACVR2A (unknown origin) at 10 uM by Ambit Kinomescan binding assay
Sequence of Activin receptor type-2A (Homo sapiens) (P27037 whole entry): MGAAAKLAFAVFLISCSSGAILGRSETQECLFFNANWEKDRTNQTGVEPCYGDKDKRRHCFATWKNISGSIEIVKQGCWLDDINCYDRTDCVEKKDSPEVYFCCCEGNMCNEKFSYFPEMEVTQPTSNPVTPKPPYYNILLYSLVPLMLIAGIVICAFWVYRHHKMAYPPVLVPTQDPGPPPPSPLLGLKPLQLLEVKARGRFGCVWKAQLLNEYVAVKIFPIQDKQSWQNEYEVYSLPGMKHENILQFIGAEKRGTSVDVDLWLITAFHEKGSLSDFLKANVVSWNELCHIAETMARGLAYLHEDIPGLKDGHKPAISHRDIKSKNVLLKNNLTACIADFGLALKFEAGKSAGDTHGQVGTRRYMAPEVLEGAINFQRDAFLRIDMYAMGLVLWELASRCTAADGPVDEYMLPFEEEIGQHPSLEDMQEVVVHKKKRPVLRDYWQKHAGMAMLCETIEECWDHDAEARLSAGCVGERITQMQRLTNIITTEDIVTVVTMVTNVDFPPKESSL

[4] = test system: Receptor-type tyrosine-protein kinase FLT3 (Homo sapiens), P36888 [N841I]; test: Inhibition of FLT3 N841I mutant (unknown origin) at 1 uM by Ambit Kinomescan binding assay relative to control; values are per cent of control
[5] = target: Serine/threonine-protein kinase 38-like (Homo sapiens) (UniProt Q9Y2H1); test: Inhibition of NDR2 Lys1 labeling site harbouring KDTGHIYAMKILR in human A-375 cells at 0.05 uM by KiNativ Profiling analysis relative to control; type: cell-based
Sequence of Serine/threonine-protein kinase 38-like (Homo sapiens) (Q9Y2H1 2-464 limits assumed): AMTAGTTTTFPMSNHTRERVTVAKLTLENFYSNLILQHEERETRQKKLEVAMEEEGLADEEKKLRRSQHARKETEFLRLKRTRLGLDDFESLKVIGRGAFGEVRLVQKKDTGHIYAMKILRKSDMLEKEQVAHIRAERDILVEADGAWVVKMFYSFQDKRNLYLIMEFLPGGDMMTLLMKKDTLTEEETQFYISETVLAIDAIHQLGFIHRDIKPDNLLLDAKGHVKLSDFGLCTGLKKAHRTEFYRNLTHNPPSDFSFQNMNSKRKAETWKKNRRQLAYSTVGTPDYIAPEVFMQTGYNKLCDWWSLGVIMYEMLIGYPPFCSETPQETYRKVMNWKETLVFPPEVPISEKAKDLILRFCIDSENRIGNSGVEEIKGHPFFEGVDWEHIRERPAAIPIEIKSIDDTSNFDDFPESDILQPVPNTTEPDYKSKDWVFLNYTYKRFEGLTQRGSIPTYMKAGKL

[6] = target: T1, Dual specificity mitogen-activated protein kinase kinase 7 (Homo sapiens) (UniProt O14733); test: Inhibition of MAP2K7 Lys2 labeling site in human A-375 cells at 5 uM by KiNativ Profiling analysis relative to control; type: cell-based
T1 sequence (whole entry): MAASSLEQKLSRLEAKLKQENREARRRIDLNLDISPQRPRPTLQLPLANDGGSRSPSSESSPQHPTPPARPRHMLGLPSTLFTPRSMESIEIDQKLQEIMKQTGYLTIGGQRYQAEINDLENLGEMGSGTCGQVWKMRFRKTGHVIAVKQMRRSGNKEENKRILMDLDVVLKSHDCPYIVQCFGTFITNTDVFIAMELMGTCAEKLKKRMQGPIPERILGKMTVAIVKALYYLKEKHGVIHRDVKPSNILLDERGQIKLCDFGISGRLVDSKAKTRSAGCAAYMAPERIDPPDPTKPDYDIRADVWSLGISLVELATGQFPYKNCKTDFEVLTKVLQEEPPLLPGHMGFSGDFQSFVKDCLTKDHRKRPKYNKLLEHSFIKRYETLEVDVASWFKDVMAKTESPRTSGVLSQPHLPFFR

[7] = target: T2, Receptor-interacting serine/threonine-protein kinase 4 (Homo sapiens) (UniProt P57078); test: Inhibition of RIPK4 (unknown origin) at 1 uM by Ambit Kinomescan binding assay relative to control
T2 sequence (whole entry): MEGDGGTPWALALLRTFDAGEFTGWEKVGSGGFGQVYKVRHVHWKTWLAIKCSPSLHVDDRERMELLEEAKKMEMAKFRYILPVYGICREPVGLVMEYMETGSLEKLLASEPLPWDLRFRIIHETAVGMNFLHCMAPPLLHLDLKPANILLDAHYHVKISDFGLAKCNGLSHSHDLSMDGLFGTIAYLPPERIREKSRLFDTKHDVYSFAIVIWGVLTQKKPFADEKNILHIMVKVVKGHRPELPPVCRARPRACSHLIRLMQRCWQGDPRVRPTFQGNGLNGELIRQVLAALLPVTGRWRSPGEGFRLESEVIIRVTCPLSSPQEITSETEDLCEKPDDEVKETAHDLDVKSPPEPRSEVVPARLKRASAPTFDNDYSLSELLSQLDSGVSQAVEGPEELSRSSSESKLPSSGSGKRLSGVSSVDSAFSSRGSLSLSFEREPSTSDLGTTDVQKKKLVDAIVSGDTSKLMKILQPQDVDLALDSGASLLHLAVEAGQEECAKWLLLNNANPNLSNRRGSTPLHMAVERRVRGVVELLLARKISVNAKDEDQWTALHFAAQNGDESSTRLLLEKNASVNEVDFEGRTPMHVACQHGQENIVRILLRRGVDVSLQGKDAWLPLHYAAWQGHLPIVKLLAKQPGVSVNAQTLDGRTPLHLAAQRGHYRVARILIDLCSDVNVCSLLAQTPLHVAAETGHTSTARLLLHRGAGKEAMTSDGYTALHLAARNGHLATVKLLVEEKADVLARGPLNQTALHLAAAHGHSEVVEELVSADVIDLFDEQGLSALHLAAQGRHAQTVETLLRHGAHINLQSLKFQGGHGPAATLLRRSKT

In the case of CNc1cc(Oc2cc(C(=O)Nc3cc(N4CCN(C)CC4)cc(C(F)(F)F)c3)ccc2C)ncn1, the inhibition [1] is reported as 8.6% and the inhibition at 1 µM [2] is reported as -110%.
For CCN1CCN(Cc2ccc(NC(=O)c3ccc(C)c(Oc4ccnc5[nH]ccc45)c3)cc2C(F)(F)F)CC1, the inhibition [3] was “inactive”.
In the case of CCN1CCN(Cc2ccc(NC(=O)c3ccc(C)c(/C=C/c4cnc5[nH]ccc5c4OC)c3)cc2C(F)(F)F)CC1, the residual activity [4] is reported as 2.3%, the inhibition [5] is reported as 6% and the inhibition [6] is reported as 57%. The inhibition [7] was 100%.
